Experimental data as given in ChEMBL document CHEMBL4196097, “Emerging Approaches for the Identification of Protein Targets of Small Molecules - A Practitioners' Perspective” (J Med Chem, 2018).
pIC50: −log10 of the molar value.

Key:
[1] = molecular target: T1, Adenosine receptor A3 (Homo sapiens, UniProt P0DMS8); experiment: Inhibition of adenosine A3 receptor (unknown origin)
T1 sequence (P0DMS8 whole entry): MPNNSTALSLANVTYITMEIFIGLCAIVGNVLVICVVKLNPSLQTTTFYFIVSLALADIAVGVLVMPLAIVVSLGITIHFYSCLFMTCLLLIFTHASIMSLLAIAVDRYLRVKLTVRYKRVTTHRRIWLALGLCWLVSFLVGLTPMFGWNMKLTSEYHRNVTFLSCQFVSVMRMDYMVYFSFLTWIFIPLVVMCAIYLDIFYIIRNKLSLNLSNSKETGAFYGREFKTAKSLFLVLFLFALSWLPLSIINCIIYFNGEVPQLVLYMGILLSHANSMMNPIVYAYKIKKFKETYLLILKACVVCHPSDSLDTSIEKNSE

[2] = molecular target: Translocator protein (Homo sapiens, UniProt P30536); experiment: Inhibition of peripheral-type benzodiazepine receptor (unknown origin)
Chain of Translocator protein (P30536 whole entry): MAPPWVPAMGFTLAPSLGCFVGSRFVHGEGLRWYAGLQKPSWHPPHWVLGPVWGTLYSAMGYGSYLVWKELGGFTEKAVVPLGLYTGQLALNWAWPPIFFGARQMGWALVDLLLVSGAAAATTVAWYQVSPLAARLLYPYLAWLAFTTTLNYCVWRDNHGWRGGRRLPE

COC(=O)C[C@@H]1N=C(c2ccc(Cl)cc2)c2c(sc(C)c2C)-n2c(C)nnc21
pIC50 [1]: 5.85 | pIC50 [2]: 6.40
